ChEMBL document CHEMBL3870355, “Biological Evaluation in Vitro and in Silico of Azetidin-2-one Derivatives as Potential Anticancer Agents” (ACS Med Chem Lett, 2017)
The source made the active and inactive calls. The rule behind the calls is not given here.

Assays:
[1] = Cytotoxicity against human SiHa cells by MTT assay; format: functional, cell-based
[2] = Cytotoxicity against mouse B16F10 cells by MTT assay; format: functional, cell-based; settings: B16-F10
[3] = Cytotoxicity against human Chang cells by MTT assay; format: toxicity, cell-based
B16-F10 [4] = experiment: Induction of apoptosis in mouse B16F10 cells assessed as caspase-3 activation using Ac-DEVD-pNA as substrate by spectrophotometric analysis; format: functional
B16-F10 [5] = experiment: Induction of apoptosis in mouse B16F10 cells assessed as formation of organized shedding vesicles by microscopic analysis; format: functional, cell-based
B16-F10 [6] = experiment: Effect on tubulin gene expression in mouse B16F10 cells by GenArise analysis; format: functional, cell-based
B16-F10 [7] = experiment: Induction of changes in cell death related gene expression in mouse B16F10 cells by GenArise analysis; format: functional, cell-based
B16-F10 [8] = experiment: Induction of changes in cytoskeleton and cell division processes related gene expression in mouse B16F10 cells by GenArise analysis; format: functional, cell-based

Structure (SMILES)	IC50 [1]	IC50 [2]	IC50 [3]	Activity (B16-F10 [4])	Activity (B16-F10 [5])	Activity (B16-F10 [6])	Activity (B16-F10 [7])	Activity (B16-F10 [8])
COc1ccc(N2C(=O)[C@@H](Oc3ccccc3)[C@H]2c2ccccc2)cc1 (relative stereo)	200 nM	280 nM	2850 nM					
COc1ccc(N2C(=O)[C@@H](OC)[C@H]2c2ccc(Cl)cc2)cc1 (relative stereo)	8610 nM	> 10000 nM	3410 nM					
COc1ccc(N2C(=O)[C@@H](Oc3ccccc3)[C@H]2c2ccc(F)cc2)cc1 (relative stereo)	80 nM	3260 nM	740 nM					
COc1ccc(N2C(=O)[C@@H](OC)[C@H]2c2ccc([N+](=O)[O-])cc2)cc1 (relative stereo)	8130 nM	2080 nM	> 10000 nM	88%				
O=C1C(Oc2ccccc2)C(c2ccc([N+](=O)[O-])cc2)N1c1nc2ccccc2s1 (racemic)	120 nM	450 nM	70 nM					
COc1ccc(N2C(=O)[C@@H](Oc3ccccc3)[C@H]2c2ccccc2[N+](=O)[O-])cc1	220 nM	4820 nM	3730 nM					
COc1ccc(N2C(=O)[C@@H](Oc3ccccc3)[C@H]2c2ccc([N+](=O)[O-])cc2)cc1 (relative stereo)	3640 nM	870 nM	2080 nM					
COc1ccc(N2C(=O)[C@@H](OC)[C@H]2c2ccc(F)cc2)cc1 (relative stereo)	2890 nM	2820 nM	7570 nM					
COc1cc([C@@H]2c3cc4c(cc3[C@H](O)[C@H]3COC(=O)[C@H]23)OCO4)cc(OC)c1OC [PODOFILOX]				100%	Active			
CC[C@]1(O)C[C@H]2CN(CCc3c([nH]c4ccccc34)[C@@](C(=O)OC)(c3cc4c(cc3OC)N(C=O)[C@H]3[C@@](O)(C(=O)OC)[C@H](OC(C)=O)[C@]5(CC)C=CCN6CC[C@]43[C@@H]65)C2)C1 [VINCRISTINE]	10 nM	10 nM	10 nM					
COc1ccc(N2C(=O)[C@@H](OC)[C@H]2c2ccc(C)cc2)cc1 (relative stereo)	730 nM	4120 nM	3920 nM					
COc1ccc([C@@H]2[C@H](Oc3ccccc3)C(=O)N2c2ccc(OC)cc2)cc1 (relative stereo)	420 nM	9700 nM	630 nM					
COc1ccc(N2C(=O)[C@@H](OC)[C@H]2c2ccccc2[N+](=O)[O-])cc1 (relative stereo)	7290 nM	2910 nM	9750 nM					
O=C1C(Oc2ccccc2)C(c2ccc(Cl)cc2)N1c1nc2ccccc2s1 (racemic)	90 nM	310 nM	230 nM					
COc1ccc([C@@H]2[C@H](OC)C(=O)N2c2ccc(OC)cc2)cc1 (relative stereo)	6360 nM	2050 nM	8380 nM					
O=C1C(Oc2ccccc2)C(c2ccco2)N1c1nc2ccccc2s1 (racemic)	330 nM	340 nM	17 nM	93%				
COc1ccc(N2C(=O)[C@@H](Oc3ccccc3)[C@H]2c2ccc(C)cc2)cc1 (relative stereo)	70 nM	1210 nM	> 10000 nM	100%	Active	Active	Active	Active
O=C1C(Oc2ccccc2)C(c2ccncc2)N1c1nc2ccccc2s1 (racemic)	1340 nM	1700 nM	1030 nM					
